Assays:
[1] = target: T1, DNA damage-binding protein 1/Cyclin-dependent kinase 12/Cyclin-K (Homo sapiens, UniProt O75909+Q16531+Q9NYV4); test: Molecular glue activity at human CDK12 (715 to 1052 residues)/Cyclin K/human DDB1-[…]-RBX1 expressed in baculovirus expression system assessed as Cyclin K protein degradation
[2] = target: T1, DNA damage-binding protein 1/Cyclin-dependent kinase 12/Cyclin-K; test: Molecular glue activity at human CDK12/CCNK (11 to 267 residues)/human DDB1-CUL4-RBX1 expressed in baculovirus expression system in human 293 TA cells assessed as CCNK protein degradation

T1 sequence (O75909 whole entry, the tested form may be a part): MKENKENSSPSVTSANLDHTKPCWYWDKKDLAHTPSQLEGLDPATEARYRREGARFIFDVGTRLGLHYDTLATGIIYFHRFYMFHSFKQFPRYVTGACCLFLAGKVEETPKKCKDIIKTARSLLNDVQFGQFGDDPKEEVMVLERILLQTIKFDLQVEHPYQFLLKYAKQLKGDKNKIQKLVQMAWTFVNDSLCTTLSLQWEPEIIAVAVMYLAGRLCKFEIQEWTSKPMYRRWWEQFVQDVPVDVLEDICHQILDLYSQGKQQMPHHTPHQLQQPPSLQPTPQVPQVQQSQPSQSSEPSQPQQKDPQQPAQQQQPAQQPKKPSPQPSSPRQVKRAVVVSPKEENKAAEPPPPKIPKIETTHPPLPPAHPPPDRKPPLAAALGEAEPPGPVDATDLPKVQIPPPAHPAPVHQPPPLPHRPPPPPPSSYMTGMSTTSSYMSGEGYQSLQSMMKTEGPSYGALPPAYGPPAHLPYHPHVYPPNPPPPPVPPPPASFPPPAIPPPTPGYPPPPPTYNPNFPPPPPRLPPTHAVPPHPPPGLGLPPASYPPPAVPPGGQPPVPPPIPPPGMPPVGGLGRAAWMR
T1 sequence (Q9NYV4 whole entry, the tested form may be a part): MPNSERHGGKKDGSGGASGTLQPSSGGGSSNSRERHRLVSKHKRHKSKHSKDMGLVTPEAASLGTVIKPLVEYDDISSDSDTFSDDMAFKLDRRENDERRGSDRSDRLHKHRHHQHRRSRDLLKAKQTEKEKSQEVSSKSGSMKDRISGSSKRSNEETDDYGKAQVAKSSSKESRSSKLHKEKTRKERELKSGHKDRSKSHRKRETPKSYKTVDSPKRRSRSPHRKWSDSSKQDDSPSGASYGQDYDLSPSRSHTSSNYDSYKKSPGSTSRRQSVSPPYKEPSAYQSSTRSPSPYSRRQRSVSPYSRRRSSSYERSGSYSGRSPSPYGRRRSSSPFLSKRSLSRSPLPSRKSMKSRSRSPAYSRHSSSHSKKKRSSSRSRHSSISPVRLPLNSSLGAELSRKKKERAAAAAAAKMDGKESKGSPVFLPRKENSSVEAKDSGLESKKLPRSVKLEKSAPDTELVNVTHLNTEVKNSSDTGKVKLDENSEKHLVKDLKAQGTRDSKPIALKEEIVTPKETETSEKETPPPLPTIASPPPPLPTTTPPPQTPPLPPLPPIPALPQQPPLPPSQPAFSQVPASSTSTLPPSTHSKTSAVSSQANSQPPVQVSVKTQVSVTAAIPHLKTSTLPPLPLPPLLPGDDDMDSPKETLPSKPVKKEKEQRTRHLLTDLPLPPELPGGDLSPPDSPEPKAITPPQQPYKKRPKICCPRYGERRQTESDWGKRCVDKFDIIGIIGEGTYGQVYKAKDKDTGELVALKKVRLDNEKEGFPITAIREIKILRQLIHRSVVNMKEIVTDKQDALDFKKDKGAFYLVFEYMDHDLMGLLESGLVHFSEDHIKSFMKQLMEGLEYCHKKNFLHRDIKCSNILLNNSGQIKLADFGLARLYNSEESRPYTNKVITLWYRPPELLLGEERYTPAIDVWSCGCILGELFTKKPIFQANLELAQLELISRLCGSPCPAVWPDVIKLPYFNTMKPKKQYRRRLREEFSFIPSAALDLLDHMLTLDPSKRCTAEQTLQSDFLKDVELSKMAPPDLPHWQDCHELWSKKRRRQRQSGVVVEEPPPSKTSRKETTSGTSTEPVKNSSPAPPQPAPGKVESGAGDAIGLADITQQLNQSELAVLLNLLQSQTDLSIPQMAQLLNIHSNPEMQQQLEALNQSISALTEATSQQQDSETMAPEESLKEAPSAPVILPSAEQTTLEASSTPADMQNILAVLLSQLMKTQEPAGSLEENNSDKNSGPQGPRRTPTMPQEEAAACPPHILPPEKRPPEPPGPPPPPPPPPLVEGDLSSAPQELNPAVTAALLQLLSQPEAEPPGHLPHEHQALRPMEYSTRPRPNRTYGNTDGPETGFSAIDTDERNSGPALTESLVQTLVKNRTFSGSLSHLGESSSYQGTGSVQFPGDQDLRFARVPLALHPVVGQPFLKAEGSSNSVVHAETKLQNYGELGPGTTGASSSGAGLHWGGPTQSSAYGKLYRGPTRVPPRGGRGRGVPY
T1 sequence (Q16531 whole entry, the tested form may be a part): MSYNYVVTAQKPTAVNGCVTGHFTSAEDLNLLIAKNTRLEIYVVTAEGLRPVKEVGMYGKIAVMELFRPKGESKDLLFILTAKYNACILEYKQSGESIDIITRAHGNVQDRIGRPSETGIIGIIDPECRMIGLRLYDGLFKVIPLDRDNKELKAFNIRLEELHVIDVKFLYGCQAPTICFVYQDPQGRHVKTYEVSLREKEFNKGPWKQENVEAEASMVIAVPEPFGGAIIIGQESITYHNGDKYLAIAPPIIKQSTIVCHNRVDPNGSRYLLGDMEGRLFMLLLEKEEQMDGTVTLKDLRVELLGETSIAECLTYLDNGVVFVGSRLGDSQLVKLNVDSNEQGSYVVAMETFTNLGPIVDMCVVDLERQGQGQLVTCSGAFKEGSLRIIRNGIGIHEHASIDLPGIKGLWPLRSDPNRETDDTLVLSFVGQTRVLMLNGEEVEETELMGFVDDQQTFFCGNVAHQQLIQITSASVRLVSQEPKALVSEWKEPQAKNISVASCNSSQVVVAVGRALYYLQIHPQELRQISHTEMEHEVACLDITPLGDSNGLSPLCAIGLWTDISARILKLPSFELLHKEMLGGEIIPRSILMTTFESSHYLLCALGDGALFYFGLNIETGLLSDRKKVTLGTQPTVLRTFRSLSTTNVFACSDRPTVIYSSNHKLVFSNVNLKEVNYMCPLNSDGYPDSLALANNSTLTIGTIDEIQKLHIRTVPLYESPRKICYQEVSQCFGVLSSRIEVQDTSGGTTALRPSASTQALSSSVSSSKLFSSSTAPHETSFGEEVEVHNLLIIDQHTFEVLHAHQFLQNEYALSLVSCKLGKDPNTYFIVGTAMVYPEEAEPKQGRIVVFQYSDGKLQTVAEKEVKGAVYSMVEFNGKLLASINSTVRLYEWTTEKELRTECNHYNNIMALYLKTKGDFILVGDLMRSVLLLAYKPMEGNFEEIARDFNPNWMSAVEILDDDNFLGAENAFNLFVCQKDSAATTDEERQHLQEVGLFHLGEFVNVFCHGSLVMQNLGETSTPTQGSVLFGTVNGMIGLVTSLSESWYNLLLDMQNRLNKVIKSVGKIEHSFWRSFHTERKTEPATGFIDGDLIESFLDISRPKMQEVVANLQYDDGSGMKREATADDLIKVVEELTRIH

Structure (SMILES)	EC50 [1]	EC50 [2]
Cc1cccc(Nc2nc(CC(=O)Nc3ncc(C)s3)cs2)n1	461 nM	132 nM
Cc1cnc(NC(=O)Cc2csc(Nc3cccc(CO)n3)n2)s1	–	41 nM

Reference: ChEMBL document CHEMBL5150002, “Molecular Glues for Targeted Protein Degradation: From Serendipity to Rational Discovery” (J Med Chem, 2021)
